Measured values published in patent publication US11814376B2, “Hepatitis b core protein modulators” (Assembly Biosciences, Inc., priority 2015, dated 2023).

How the values were obtained:
AD38 cells = assay: Viability of AD38 cells (Promega CellTiter-Glo); format: cell-based; conditions: 10 μM compound, 6 days, CellTiter-Glo luminescence normalized to DMSO control (100%)
Method in brief: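 AD38 cells were seeded at 50,000/well on collagen-coated plates and treated with compound added as a 10× solution in 10% DMSO for 6 days at 37° C. Viability was measured by CellTiter-Glo luminescence in tetracycline-free medium with 2% FBS and 1% DMSO, and expressed as percent of DMSO control.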

[1] = system: HBV viral load in AD38 cells; assay: Viral load production in AD38 cells, quantitative PCR of the core sequence in supernatant; format: cell-based; conditions: 10 μM compound, 6 days at 37° C., supernatant qPCR, relative to DMSO control; for activity at 10 µM: Hepatitis B virus, 144 h, read-out: AD38 Viral Load (%) (VL with cmpd/VL in DMSO control) at 10 μM

Structure (SMILES): C=CCN1c2ccc(C(=O)NCc3cnc(C(F)(F)F)s3)cc2NC(=O)c2ccccc21 [compound 1920]
- AD38 Viability Normalized Result (cmpd/DMSO %) at 10 μM (AD38 cells): 85%
- activity at 10 µM [1]: 48.8%

Structure (SMILES): O=C(NCc1cnc(-c2ccc(O)cc2)s1)c1ccc2c(c1)NC(=O)c1ccccc1O2 [compound 1618]
- AD38 Viability Normalized Result (cmpd/DMSO %) at 10 μM (AD38 cells): 100%
- activity at 10 µM [1]: 1.9%

Structure (SMILES): O=C(NCc1cnc(-c2ccc(OCCCN(CCO)CCO)cc2)s1)c1ccc2c(c1)NC(=O)c1ccccc1S2(=O)=O [compound 1998]
- AD38 Viability Normalized Result (cmpd/DMSO %) at 10 μM (AD38 cells): 99%
- activity at 10 µM [1]: 3.7%

Structure (SMILES): COC(=O)c1ccc(-c2ncc(CNC(=O)c3ccc4c(c3)NC(=O)c3ccccc3O4)s2)cc1 [1612-A, methyl 4-(5-((11-oxo-10, 11-dihydrodibenzo [b, f] [1, 4]oxazepine-8-carboxamido)methyl)thiazol-2-yl) benzoate]
- AD38 Viability Normalized Result (cmpd/DMSO %) at 10 μM (AD38 cells): 101%
- activity at 10 µM [1]: 12.4%

Structure (SMILES): O=C(NCc1cnc(-c2ccc(-n3cccn3)cc2)s1)c1ccc2c(c1)NC(=O)c1ccccc1S2(=O)=O [compound 1952, N-((2-(4-(1H-pyrazol-1-yl)phenyl)thiazol-5-yl)methyl)-11-oxo-10, 11-dihydrodibenzo [b, f] [1, 4] thiazepine-8-carboxamide 5,5-dioxide]
- AD38 Viability Normalized Result (cmpd/DMSO %) at 10 μM (AD38 cells): 106%
- activity at 10 µM [1]: 0.8%

Structure (SMILES): O=C(NCc1cnc(-c2ccc(OCCN3CCOCC3)cc2)s1)c1ccc2c(c1)NC(=O)c1ccccc1S2(=O)=O [compound 1587]
- AD38 Viability Normalized Result (cmpd/DMSO %) at 10 μM (AD38 cells): 99%
- activity at 10 µM [1]: 2.8%

Structure (SMILES): O=C1Cc2cc(-c3ncc(CNC(=O)c4ccc5c(c4)NC(=O)c4ccccc4O5)s3)ccc2N1 [compound 1833]
- AD38 Viability Normalized Result (cmpd/DMSO %) at 10 μM (AD38 cells): 102%
- activity at 10 µM [1]: 67.4%

Structure (SMILES): O=C(NCc1cnc(-c2ccc(O)cc2)s1)c1ccc2c(c1)NC(=O)c1cc(F)ccc1S2 [compound 1746]
- AD38 Viability Normalized Result (cmpd/DMSO %) at 10 μM (AD38 cells): 92%
- activity at 10 µM [1]: 5.6%

Structure (SMILES): O=C(NCc1cnc(-c2ccc(OCCCNCC(F)(F)F)cc2)s1)c1ccc2c(c1)NC(=O)c1ccccc1S2(=O)=O [compound 11102]
- AD38 Viability Normalized Result (cmpd/DMSO %) at 10 μM (AD38 cells): 93%
- activity at 10 µM [1]: 0.5%

Structure (SMILES): O=C(NCc1cnc(-c2ccccc2)s1)c1ccc2c(=O)c3ccccc3c(=O)[nH]c2c1 [compound 1594]
- AD38 Viability Normalized Result (cmpd/DMSO %) at 10 μM (AD38 cells): 105%
- activity at 10 µM [1]: 0.9%

Structure (SMILES): CN1c2ccc(C(=O)NCc3cnc(-c4ccc(C#N)cc4)s3)cc2NC(=O)c2ccccc21 [compound 1974]
- AD38 Viability Normalized Result (cmpd/DMSO %) at 10 μM (AD38 cells): 103%
- activity at 10 µM [1]: 15.3%

Structure (SMILES): NC(=O)c1ccc(-c2ncc(CNC(=O)c3ccc4c(c3)NC(=O)c3ccccc3O4)s2)cc1 [compound 1770, N-((2-(4-carbamoylphenyl)thiazol-5-yl)methyl)-11-oxo-10, 11-dihydrodibenzo [b, f] [1, 4] oxazepine-8-carboxamide]
- AD38 Viability Normalized Result (cmpd/DMSO %) at 10 μM (AD38 cells): 77%
- activity at 10 µM [1]: 32.5%

Structure (SMILES): COc1ccc(-c2ncc(CNC(=O)c3ccc4c(c3)NC(=O)c3ccccc3S4(=O)=O)s2)cn1 [compound 1666, N-((2-(6-methoxypyridin-3-yl)thiazol-5-yl)methyl)-11-oxo-10, 11-dihydrodibenzo [b, f] [1, 4] thiazepine-8-carboxamide 5,5-dioxide]
- AD38 Viability Normalized Result (cmpd/DMSO %) at 10 μM (AD38 cells): 98%
- activity at 10 µM [1]: 0.9%

Structure (SMILES): CN(C)c1ccnc(-c2ncc(CNC(=O)c3ccc4c(c3)NC(=O)c3ccccc3S4(=O)=O)s2)c1 [compound 1889, N-((2-(4-(dimethylamino)pyridin-2-yl)thiazol-5-yl)methyl)-11-oxo-10,11-dihydrodibenzo [b, f] [1, 4] thiazepine-8-carboxamide 5,5-dioxide]
- AD38 Viability Normalized Result (cmpd/DMSO %) at 10 μM (AD38 cells): 98%
- activity at 10 µM [1]: 4.6%

Structure (SMILES): CC(C)(C)OC(=O)NCCCS(=O)(=O)c1ccc(-c2ncc(CNC(=O)c3ccc4c(c3)NC(=O)c3ccccc3S4(=O)=O)s2)cc1 [11032-A, tert-butyl (3-((4-(5-((5,5-dioxido-11-oxo-10, 11-dihydrodibenzo [b, f] [1, 4]thiazepine-8-carboxamido)methyl)thiazol-2-yl)phenyl)sulfonyl)propyl) carbamate]
- AD38 Viability Normalized Result (cmpd/DMSO %) at 10 μM (AD38 cells): 110%
- AD38 Viral Load (%) (VL with cmpd/VL in DMSO control) at 10 μM [1]: 12.9%

Structure (SMILES): NCCCS(=O)(=O)c1ccc(-c2ncc(CNC(=O)c3ccc4c(c3)NC(=O)c3ccccc3S4(=O)=O)s2)cc1.O=C(O)C(F)(F)F [compound 11032, N-((2-(4-((3-aminopropyl)sulfonyl)phenyl)thiazol-5-yl)methyl)-11-oxo-10, 11-dihydrodibenzo [b, f] [1, 4] thiazepine-8-carboxamide 5,5-dioxide TFA salt]
- AD38 Viability Normalized Result (cmpd/DMSO %) at 10 μM (AD38 cells): 103%
- activity at 10 µM [1]: 51.7%

Structure (SMILES): CCc1ncc(CNC(=O)c2ccc3c(c2)NC(=O)c2ccccc2O3)s1 [compound 1558]
- AD38 Viability Normalized Result (cmpd/DMSO %) at 10 μM (AD38 cells): 106%
- activity at 10 µM [1]: 0.5%

Structure (SMILES): O=C(NCc1cnc(-c2ccc(O)cc2F)s1)c1ccc2c(c1)NC(=O)c1ccccc1S2(=O)=O [compound 1670]
- AD38 Viability Normalized Result (cmpd/DMSO %) at 10 μM (AD38 cells): 102%
- activity at 10 µM [1]: 0.9%

Structure (SMILES): COc1cccc(Cc2ncc(CNC(=O)c3ccc4c(c3)NC(=O)c3ccccc3S4(=O)=O)s2)c1 [compound 1822, N-((2-(3-methoxybenzyl)thiazol-5-yl)methyl)-11-oxo-10, 11-dihydrodibenzo [b, f] [1, 4] thiazepine-8-carboxamide 5,5-dioxide]
- AD38 Viability Normalized Result (cmpd/DMSO %) at 10 μM (AD38 cells): 89%
- activity at 10 µM [1]: 1.5%

Structure (SMILES): O=C(NCc1cnc(-c2ccc(O)c(F)c2)s1)c1ccc2c(c1)NC(=O)c1ccccc1O2 [compound 1700]
- AD38 Viability Normalized Result (cmpd/DMSO %) at 10 μM (AD38 cells): 105%
- activity at 10 µM [1]: 9.2%

Structure (SMILES): O=C(NCc1cnc(-c2cc(F)c(O)c(F)c2)s1)c1ccc2c(c1)NC(=O)c1ccccc1S2(=O)=O [compound 1665]
- AD38 Viability Normalized Result (cmpd/DMSO %) at 10 μM (AD38 cells): 90%
- activity at 10 µM [1]: 2.7%

Structure (SMILES): O=C(NCc1cnc(-c2ccc(O)nc2)s1)c1ccc2c(c1)NC(=O)c1ccccc1S2(=O)=O [compound 1669, N-((2-(6-hydroxypyridin-3-yl)thiazol-5-yl)methyl)-11-oxo-10, 11-dihydrodibenzo [b, f] [1, 4] thiazepine-8-carboxamide 5,5-dioxide]
- AD38 Viability Normalized Result (cmpd/DMSO %) at 10 μM (AD38 cells): 104%
- activity at 10 µM [1]: 13.1%

Structure (SMILES): O=C1CCN(c2ncc(CNC(=O)c3ccc4c(c3)NC(=O)c3ccccc3S4(=O)=O)s2)CCN1 [compound 1973]
- AD38 Viability Normalized Result (cmpd/DMSO %) at 10 μM (AD38 cells): 100%
- activity at 10 µM [1]: 33.7%

Structure (SMILES): CCOC(=O)/C=C/c1cnn(-c2ncc(CNC(=O)c3ccc4c(c3)NC(=O)c3ccccc3S4(=O)=O)s2)c1 [compound 11118]
- AD38 Viability Normalized Result (cmpd/DMSO %) at 10 μM (AD38 cells): 95%
- activity at 10 µM [1]: 1.9%

Structure (SMILES): O=C(NCc1cnc(-c2ccccc2)s1)c1ccc2c(c1)NC(=O)c1ccccc1S2(=O)=O [compound 1525]
- AD38 Viability Normalized Result (cmpd/DMSO %) at 10 μM (AD38 cells): 104%
- activity at 10 µM [1]: 0.2%

Structure (SMILES): Cc1ncc(CNC(=O)c2ccc3c(c2)NC(=O)c2ccccc2C3C)s1 (stereo not drawn) [compound 1548]
- AD38 Viability Normalized Result (cmpd/DMSO %) at 10 μM (AD38 cells): 97%
- activity at 10 µM [1]: 0.4%

Structure (SMILES): CC(=O)NCCCCc1ccc(-c2ncc(CNC(=O)c3ccc4c(c3)NC(=O)c3ccccc3S4(=O)=O)s2)cc1 [compound 11057]
- AD38 Viability Normalized Result (cmpd/DMSO %) at 10 μM (AD38 cells): 101%
- activity at 10 µM [1]: 1%

Structure (SMILES): CN1CCN(c2ncc(CNC(=O)c3ccc4c(c3)NC(=O)c3ccccc3O4)s2)CC1 [compound 1694]
- AD38 Viability Normalized Result (cmpd/DMSO %) at 10 μM (AD38 cells): 91%
- activity at 10 µM [1]: 61.1%

Structure (SMILES): Nc1ccc(-c2ncc(CNC(=O)c3ccc4c(c3)NC(=O)c3ccccc3S4(=O)=O)s2)cc1 [1645-B, N-((2-(4-aminophenyl)thiazol-5-yl)methyl)-11-oxo-10, 11-dihydrodibenzo [b, f] [1, 4] thiazepine-8-carboxamide 5,5-dioxide]
- AD38 Viability Normalized Result (cmpd/DMSO %) at 10 μM (AD38 cells): 100%
- activity at 10 µM [1]: 77.8%

Structure (SMILES): CN(C)c1ccc(-c2ncc(CNC(=O)c3ccc4c(c3)NC(=O)c3ccccc3O4)s2)cc1 [compound 1697]
- AD38 Viability Normalized Result (cmpd/DMSO %) at 10 μM (AD38 cells): 90%
- activity at 10 µM [1]: 5.5%

Structure (SMILES): O=C(NCc1cnc(-c2ccc(F)cc2)s1)c1ccc2c(c1)NC(=O)c1ccccc1S2 [compound 1556]
- AD38 Viability Normalized Result (cmpd/DMSO %) at 10 μM (AD38 cells): 105%
- activity at 10 µM [1]: 1.6%

Structure (SMILES): O=C(NCc1cnc(-c2ccc(OCCCN3CCOCC3)cc2)s1)c1ccc2c(c1)NC(=O)c1ccccc1S2(=O)=O [compound 1993]
- AD38 Viability Normalized Result (cmpd/DMSO %) at 10 μM (AD38 cells): 96%
- activity at 10 µM [1]: 0.5%

Structure (SMILES): O=C(NCc1cnc(-c2ccc(-c3nccs3)cc2)s1)c1ccc2c(c1)NC(=O)c1ccccc1S2(=O)=O [compound 1954]
- AD38 Viability Normalized Result (cmpd/DMSO %) at 10 μM (AD38 cells): 106%
- activity at 10 µM [1]: 0.5%
